In patent publication US20260297092A1, “PYRAZOLOPYRIMIDINE DERIVATIVES AS INHIBITORS OF NLRP3” (Takeda Pharmaceutical Company Limited, priority 2023, published 2026):

Tested on: NLRP3 inflammasome (IL-1β production in THP-1 cells)
Assay: IL-1β TR-FRET Assay (percentage of inhibition at 300 nM, 6 μM or 10 μM)
Assay type: cell-based, human
Settings: Homo sapiens, THP-1, 300 nM, LPS priming, ATP activation, read-out: IL-1β inhibitory rate at 300 nM (%)
Protocol: The biological activity of the compound of Formula 1 with respect to NLRP3 was determined using the following in vitro method.
IL-1β TR-FRET Assay (reported as percentage of inhibition at 300 nM, 6 μM or 10 μM)
Monocytic THP-1 cells (ATCC: TIB-202) were maintained in accordance with the provider's instructions in RPMI media (Life Technologies, Cat #A10491-01); RPMI was supplemented with 10% heat inactivated fetal bovine serum (Corning, Cat #35-010-CV). The cells were differentiated into macrophages by the addition of 25 ng/mL IFN-γ (PeproTech, Cat #AF-300-02-100UG) for 24 hours at 37° C./5% CO2. Media was exchanged with fresh media with no FBS, and the cells were treated with 50 ng/mL LPS (priming step) (LPS-EK: Invivogen, Cat #tlrl-peklps). The cells were plated at 20,000 cells per well in 384-well flat-bottom cell culture plates (FALCON, Cat #353962) and were incubated for 24 hours at 37° C./5% CO2. Compounds were serially diluted (half log or 5-fold dilutions) with DMSO and were finally diluted with Media with no FBS. The compounds were added to the cells in 384-well plates (added in 1:3) and then the plates were incubated for 30 minutes at 37° C./5% CO2. The NLRP3 inflammasome was activated with the addition of 20 mM ATP (Sigma Cat #A3377-25G) and the cells were incubated for 2 hours at 37° C./5% CO2. At the end of the incubation period, 30 μL supernatant was transferred to another 384-well plate and mixed on a plate shaker for 1 minute. The supernatant was mixed with HTRF Antibody (Human IL1 beta kit, Cisbio, 62HIL1BPEH) in assay plates (Greiner Bio-One, Cat #784075) and the assay plates were incubated in shading box at room temperature for 16-24 hours. HTRF signal was measured by EnVision (Perkinelmer) in accordance with the manufacturer's instructions.
The percentage of inhibition at 300 nM, 6 μM or 10 μM in the IL-1βTR-FRET assay was calculated by the following formula: Percentage of inhibition=[1−(HTRF signaltest−HTRF signalLow)/(HTRF signalHigh−HTRF signalLow)]*100, where HTRF signaltest is the HTRF signal in the well to which test compound is added, HTRF signalLow is the HTRF signal in the well to which 3 μM MCC-950 is added, and the HTRF signalHigh is the HTRF signal in the well to which DMSO is added.

For CCOc1nc2nn(-c3c(F)cc(C4CC4)cc3CC(F)(F)F)cc2c(=O)[nH]1 [Example 206, 2-[4-cyclopropyl-2-fluoro-6-(2,2,2-trifluoroethyl)phenyl]-6-ethoxy-2,5-dihydro-4H-pyrazolo[3,4-d]pyrimidin-4-one], which inhibition at 0.3 µM is on record?
Its inhibition at 0.3 µM is 97%.

For Cc1cc(Br)cc(C)c1-n1cc2c(=O)[nH]c(-c3ccncn3)nc2n1 [Example 185, 2-(4-bromo-2,6-dimethylphenyl)-6-(pyrimidin-4-yl)-2,5-dihydro-4H-pyrazolo[3,4-d]pyrimidin-4-one], which inhibition at 0.3 µM is on record?
Its inhibition at 0.3 µM is 114%.

Cc1cc(C2CC2)cc(C)c1-n1cc2c(=O)[nH]c(C3CCCO3)nc2n1 (racemic) [Example 223, 2-(4-cyclopropyl-2,6-dimethylphenyl)-6-(oxolan-2-yl)-2,5-dihydro-4H-pyrazolo[3,4-d]pyrimidin-4-one] was tested. Which inhibition at 0.3 µM did it give?
The inhibition at 0.3 µM was 100%.

COCCOc1nc2nn(-c3c(C)cc(C4CC4)cc3C(F)F)cc2c(=O)[nH]1 [Example 210, 2-[4-cyclopropyl-2-(difluoromethyl)-6-methylphenyl]-6-(2-methoxyethoxy)-2,5-dihydro-4H-pyrazolo[3,4-d]pyrimidin-4-one] was tested. Which inhibition at 0.3 µM did it give?
Its inhibition at 0.3 µM is 101%.

For Cc1ccc(-n2cc3c(=O)[nH]c(OCCC(F)(F)F)nc3n2)c(C)c1 [Example 197, 2-(2,4-dimethylphenyl)-6-(3,3,3-trifluoropropoxy)-2,5-dihydro-4H-pyrazolo [3,4-d]pyrimidin-4-one], which inhibition at 0.3 µM is on record?
Its inhibition at 0.3 µM is 60%.

How did the inhibition at 0.3 µM turn out when COCCOc1nc2nn(-c3c(C)cc(C4CC4)cc3OC(F)F)cc2c(=O)[nH]1 [Example 225, 2-[4-cyclopropyl-2-(difluoromethoxy)-6-methylphenyl]-6-(2-methoxyethoxy)-2,5-dihydro-4H-pyrazolo[3,4-d]pyrimidin-4-one] was run?
Its inhibition at 0.3 µM is 100%.

For Cc1ccc(-n2cc3c(=O)[nH]c(OCCCC(F)(F)F)nc3n2)c(C)c1 [Example 196, 2-(2,4-dimethylphenyl)-6-(4,4,4-trifluorobutoxy)-2,5-dihydro-4H-pyrazolo[3,4-d]pyrimidin-4-one], which inhibition at 0.3 µM is on record?
Its inhibition at 0.3 µM is 55%.

Same assay, conditions: Homo sapiens, THP-1, 6 μM, LPS priming, ATP activation, read-out: IL-1β inhibitory rate at 6 μM (%)

With Cc1cc(C2CC2)cc(C)c1-n1cc2c(=O)[nH]c([C@H]3C[C@H](F)C3)nc2n1 [Example 255, 2-(4-cyclopropyl-2,6-dimethylphenyl)-6-[(1r,3r)-3-fluorocyclobutyl]-2,5-dihydro-4H-pyrazolo [3,4-d]pyrimidin-4-one] as the compound, how does the inhibition at 6 µM read?
Its inhibition at 6 µM is 98%.

CCCc1nc2nn(-c3c(C)cc(C4CC4)cc3C)cc2c(=O)[nH]1 [Example 240, 2-(4-cyclopropyl-2,6-dimethylphenyl)-6-propyl-2,5-dihydro-4H-pyrazolo[3,4-d]pyrimidin-4-one] was tested. Which inhibition at 6 µM did it give?
The inhibition at 6 µM was 101%.

How did the inhibition at 6 µM turn out when CCOc1c(-n2cc3c(=O)[nH]c(CC)nc3n2)ccc(C2CC2)c1C(F)F [Example 282, 2-[4-cyclopropyl-3-(difluoromethyl)-2-ethoxyphenyl]-6-ethyl-2,5-dihydro-4H-pyrazolo[3,4-d]pyrimidin-4-one] was run?
Its inhibition at 6 µM is 55%.

Cc1cc(C2CC2)cc(C)c1-n1cc2c(=O)[nH]c(C3C=COCC3)nc2n1 (stereo not drawn) [Example 306, 2-(4-cyclopropyl-2,6-dimethylphenyl)-6-(3,4-dihydro-2H-pyran-4-yl)-2,5-dihydro-4H-pyrazolo[3,4-d]pyrimidin-4-one] was tested. Which inhibition at 6 µM did it give?
Its inhibition at 6 µM is 98%.

For Cc1cc(C2CC2)cc(C)c1-n1cc2c(=O)[nH]c(CCO)nc2n1 [Example 276, 2-(4-cyclopropyl-2,6-dimethylphenyl)-6-(2-hydroxyethyl)-2,5-dihydro-4H-pyrazolo[3,4-d]pyrimidin-4-one], which inhibition at 6 µM is on record?
The inhibition at 6 µM was 99%.

How did the inhibition at 6 µM turn out when Nc1ccc(-n2cc3c(=O)[nH]c(COC(F)F)nc3n2)c(C(F)F)c1 [Example 261, 2-[4-amino-2-(difluoromethyl)phenyl]-6-[(difluoromethoxy)methyl]-2,5-dihydro-4H-pyrazolo[3,4-d]pyrimidin-4-one] was run?
The inhibition at 6 µM was 80%.

CO[C@H]1C[C@H](Oc2nc3nn(-c4ccc(C)cc4C)cc3c(=O)[nH]2)C1 [Example 244, 2-(2,4-dimethylphenyl)-6-{[(1r,3r)-3-methoxycyclobutyl]oxy}-2,5-dihydro-4H-pyrazolo[3,4-d]pyrimidin-4-one] was tested. Which inhibition at 6 µM did it give?
The inhibition at 6 µM was 100%.

For Cc1cc(C2CC2)cc(C)c1-n1cc2c(=O)[nH]c(CCOCc3ccccc3)nc2n1 [Example 268, 6-[2-(benzyloxy)ethyl]-2-(4-cyclopropyl-2,6-dimethylphenyl)-2,5-dihydro-4H-pyrazolo[3,4-d]pyrimidin-4-one], which inhibition at 6 µM is on record?
Its inhibition at 6 µM is 98%.

Cc1cc(C2CC2)cc(C)c1-n1cc2c(=O)[nH]c(C(C)(F)F)nc2n1 [Example 259, 2-(4-cyclopropyl-2,6-dimethylphenyl)-6-(1,1-difluoroethyl)-2,5-dihydro-4H-pyrazolo[3,4-d]pyrimidin-4-one] was tested. Which inhibition at 6 µM did it give?
Its inhibition at 6 µM is 104%.

Which inhibition at 6 µM does the source give for Cc1cc(C2CC2)cc(C)c1-n1cc2c(=O)[nH]c(C3(C#N)CC3)nc2n1 [Example 318, 1-[2-(4-cyclopropyl-2,6-dimethylphenyl)-4-oxo-4,5-dihydro-2H-pyrazolo[3,4-d]pyrimidin-6-yl]cyclopropane-1-carbonitrile] here?
The inhibition at 6 µM was 98%.

How did the inhibition at 6 µM turn out when Cc1cc(C2CC2)cc(C)c1-n1cc2c(=O)[nH]c(C3=CCOCC3)nc2n1 [Example 307, 2-(4-cyclopropyl-2,6-dimethylphenyl)-6-(3,6-dihydro-2H-pyran-4-yl)-2,5-dihydro-4H-pyrazolo[3,4-d]pyrimidin-4-one] was run?
The inhibition at 6 µM was 108%.

With Cc1cc(C2CC2)cc(C)c1-n1cc2c(=O)[nH]c(C3(C)COC3)nc2n1 [Example 315, 2-(4-cyclopropyl-2,6-dimethylphenyl)-6-(3-methyloxetan-3-yl)-2,5-dihydro-4H-pyrazolo [3,4-d]pyrimidin-4-one] as the compound, how does the inhibition at 6 µM read?
The inhibition at 6 µM was 101%.

How did the inhibition at 6 µM turn out when Cc1c(Br)c(Br)cc(C(F)F)c1-n1cc2c(=O)[nH]c(COC(F)F)nc2n1 [Example 280, 2-[3,4-dibromo-6-(difluoromethyl)-2-methylphenyl]-6-[(difluoromethoxy)methyl]-2,5-dihydro-4H-pyrazolo[3,4-d]pyrimidin-4-one] was run?
The inhibition at 6 µM was 99%.

How did the inhibition at 6 µM turn out when CCOC(Cc1nc2nn(-c3c(C)cc(C4CC4)cc3C)cc2c(=O)[nH]1)OCC [Example 234, 2-(4-cyclopropyl-2,6-dimethylphenyl)-6-(2,2-diethoxyethyl)-2,5-dihydro-4H-pyrazolo[3,4-d]pyrimidin-4-one] was run?
The inhibition at 6 µM was 90%.

How did the inhibition at 6 µM turn out when CO[C@H]1C[C@@H](c2nc3nn(-c4c(C)cc(C5CC5)cc4C)cc3c(=O)[nH]2)C1 [Example 248, 2-(4-cyclopropyl-2,6-dimethylphenyl)-6-[(1s,3s)-3-methoxycyclobutyl]-2,5-dihydro-4H-pyrazolo[3,4-d]pyrimidin-4-one] was run?
The inhibition at 6 µM was 100%.

How did the inhibition at 6 µM turn out when Cc1cc(C2CC2)cc(C)c1-n1cc2c(=O)[nH]c([C@]3(F)CCOC3)nc2n1 [Example 290, 2-(4-cyclopropyl-2,6-dimethylphenyl)-6-[(3S)-3-fluorooxolan-3-yl]-2,5-dihydro-4H-pyrazolo[3,4-d]pyrimidin-4-one or 2-(4-cyclopropyl-2,6-dimethylphenyl)-6-[(3R)-3-fluorooxolan-3-yl]-2,5-dihydro-4H-pyrazolo[3,4-d]pyrimidin-4-one] was run?
Its inhibition at 6 µM is 99%.

Same assay, conditions: Homo sapiens, THP-1, 10 μM, LPS priming, ATP activation, read-out: IL-1β inhibitory rate at 10 μM (%)

Which inhibition at 10 µM does the source give for Cc1cc(Br)cc(C)c1-n1cc2c(=O)[nH]c([C@@H](C)C(=O)O)nc2n1 [Example 170, 2-[2-(4-bromo-2,6-dimethylphenyl)-4-oxo-4,5-dihydro-2H-pyrazolo [3,4-d]pyrimidin-6-yl]propanoic acid] here?
Its inhibition at 10 µM is 136%.
